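A five-concentration, 48-hour dose response in 96-well plates underlies each endpoint, interpolated linearly between surrounding concentrations. The concentration for 50% growth inhibition is given as GI50.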 Active and inactive are the calls of the source. Rule as the data show it: active = GI50 up to about 1.1 µM and inactive = higher.
Key:
Experiment in all cases: NCI-60 cell line screen, 48 h
HT-29 = tested on: HT-29
SN12C = tested on: SN12C
OVCAR-3 = tested on: OVCAR-3
MCF7 = tested on: MCF7
SK-MEL-28 = tested on: SK-MEL-28
HCC 2998 = tested on: HCC 2998
Malme-3M = tested on: Malme-3M
HOP-62 = tested on: HOP-62
OVCAR-8 = tested on: OVCAR-8
HOP-92 = tested on: HOP-92
SK-OV-3 = tested on: SK-OV-3
HCT-15 = tested on: HCT-15
RXF 393 = tested on: RXF 393
A549 = tested on: A549
OVCAR-4 = tested on: OVCAR-4
SF-268 = tested on: SF-268
KM12 = tested on: KM12
UO-31 = tested on: UO-31
PC-3 = tested on: PC-3
OVCAR-5 = tested on: OVCAR-5

N=C1N(c2ccccc2)C(=S)/C(=N/c2ccccc2)N1c1ccccc1
GI50 (HT-29): 4.37 µM (inactive)
GI50 (SN12C): 13.3 µM (inactive)
GI50 (OVCAR-3): 2.28 µM (inactive)
GI50 (MCF7): 1.84 µM (inactive)
GI50 (SK-MEL-28): 16.8 µM (inactive)
GI50 (HCC 2998): 15.3 µM (inactive)
GI50 (Malme-3M): 13.4 µM (inactive)
GI50 (HOP-62): 19.3 µM (inactive)
GI50 (OVCAR-8): 4.95 µM (inactive)
GI50 (HOP-92): 9.48 µM (inactive)
GI50 (SK-OV-3): 18.9 µM (inactive)
GI50 (HCT-15): 7.19 µM
GI50 (RXF 393): 11.9 µM (inactive)
GI50 (A549): 19.7 µM (inactive)
GI50 (OVCAR-4): 12.7 µM (inactive)
GI50 (SF-268): 14.9 µM (inactive)
GI50 (KM12): 14 µM (inactive)
GI50 (UO-31): 6.28 µM (inactive)
GI50 (PC-3): 10.2 µM (inactive)
GI50 (OVCAR-5): 15.6 µM (inactive)

O=C1Oc2ccccc2C(=O)/C1=C1/C=C(c2ccccc2)SS1
GI50 (HT-29): 40.6 µM (inactive)
GI50 (SN12C): 69 µM (inactive)
GI50 (OVCAR-3): 71.1 µM (inactive)
GI50 (MCF7): > 100 µM (inactive)
GI50 (SK-MEL-28): > 100 µM (inactive)
GI50 (HCC 2998): 96.8 µM (inactive)
GI50 (Malme-3M): 96.4 µM (inactive)
GI50 (HOP-62): > 100 µM (inactive)
GI50 (OVCAR-8): > 100 µM (inactive)
GI50 (HOP-92): 15.6 µM (inactive)
GI50 (SK-OV-3): > 100 µM (inactive)
GI50 (HCT-15): 40 µM
GI50 (RXF 393): 63.2 µM (inactive)
GI50 (A549): > 100 µM (inactive)
GI50 (OVCAR-4): 91 µM (inactive)
GI50 (SF-268): 86.7 µM (inactive)
GI50 (KM12): > 100 µM (inactive)
GI50 (UO-31): > 100 µM (inactive)
GI50 (PC-3): > 100 µM (inactive)
GI50 (OVCAR-5): > 100 µM (inactive)

COCOc1c(C(O[Si](C)(C)C(C)(C)C)c2cnc(Sc3ccccc3)n2C)ccc(OC)c1OC (stereo not given)
GI50 (HT-29): 1.93 µM (inactive)
GI50 (SN12C): 1.78 µM (inactive)
GI50 (OVCAR-3): 1.7 µM (inactive)
GI50 (MCF7): 1.76 µM (inactive)
GI50 (SK-MEL-28): 1.84 µM (inactive)
GI50 (HCC 2998): 1.84 µM (inactive)
GI50 (Malme-3M): 2.45 µM (inactive)
GI50 (HOP-62): 1.66 µM (inactive)
GI50 (OVCAR-8): 1.43 µM (inactive)
GI50 (HOP-92): 2.13 µM (inactive)
GI50 (SK-OV-3): 2.05 µM (inactive)
GI50 (HCT-15): 1.94 µM
GI50 (RXF 393): 1.36 µM (inactive)
GI50 (A549): 1.88 µM (inactive)
GI50 (OVCAR-4): 3 µM (inactive)
GI50 (SF-268): 1.64 µM (inactive)
GI50 (KM12): 1.92 µM (inactive)
GI50 (UO-31): 1.83 µM (inactive)
GI50 (PC-3): 1.55 µM (inactive)
GI50 (OVCAR-5): > 100 µM (inactive)

Clc1ccc(C2ON=C(c3ccccc3)N2C23CC4CC(CC(C4)C2)C3)cc1 (stereo not given)
GI50 (HT-29): > 10 µM (inactive)
GI50 (SN12C): > 10 µM (inactive)
GI50 (OVCAR-3): > 10 µM (inactive)
GI50 (MCF7): > 10 µM (inactive)
GI50 (SK-MEL-28): > 10 µM (inactive)
GI50 (HCC 2998): > 10 µM (inactive)
GI50 (Malme-3M): > 10 µM (inactive)
GI50 (HOP-62): > 10 µM (inactive)
GI50 (OVCAR-8): > 10 µM (inactive)
GI50 (HOP-92): > 10 µM (inactive)
GI50 (SK-OV-3): > 10 µM (inactive)
GI50 (HCT-15): > 10 µM
GI50 (RXF 393): > 10 µM (inactive)
GI50 (A549): > 10 µM (inactive)
GI50 (OVCAR-4): > 10 µM (inactive)
GI50 (SF-268): > 10 µM (inactive)
GI50 (KM12): > 10 µM (inactive)
GI50 (PC-3): > 10 µM (inactive)
GI50 (OVCAR-5): > 10 µM (inactive)

CCNC(=O)Nc1cccc(NC(=O)NCC)n1
GI50 (HT-29): 76.4 µM (inactive)
GI50 (SN12C): > 100 µM (inactive)
GI50 (OVCAR-3): > 100 µM (inactive)
GI50 (MCF7): 57.1 µM (inactive)
GI50 (SK-MEL-28): > 100 µM (inactive)
GI50 (HCC 2998): 62.1 µM (inactive)
GI50 (Malme-3M): > 100 µM (inactive)
GI50 (HOP-62): 81.8 µM (inactive)
GI50 (OVCAR-8): > 100 µM (inactive)
GI50 (HOP-92): 50.4 µM (inactive)
GI50 (SK-OV-3): > 100 µM (inactive)
GI50 (RXF 393): > 100 µM (inactive)
GI50 (A549): > 100 µM (inactive)
GI50 (OVCAR-4): > 100 µM (inactive)
GI50 (SF-268): > 100 µM (inactive)
GI50 (KM12): > 100 µM (inactive)
GI50 (UO-31): 43.8 µM (inactive)
GI50 (PC-3): 59.3 µM (inactive)
GI50 (OVCAR-5): > 100 µM (inactive)

ClC1=C(Cc2ccccc2)Cc2ccc3c(c21)CCC3
GI50 (HT-29): 22.6 µM (inactive)
GI50 (SN12C): 34.4 µM (inactive)
GI50 (OVCAR-3): 36.4 µM (inactive)
GI50 (MCF7): 18.9 µM (inactive)
GI50 (SK-MEL-28): 66.5 µM (inactive)
GI50 (HCC 2998): 20 µM (inactive)
GI50 (Malme-3M): 24.2 µM (inactive)
GI50 (HOP-62): 34.1 µM (inactive)
GI50 (OVCAR-8): 36.8 µM (inactive)
GI50 (HOP-92): 99.8 µM (inactive)
GI50 (SK-OV-3): 83.6 µM (inactive)
GI50 (HCT-15): 31.3 µM
GI50 (RXF 393): 19.7 µM (inactive)
GI50 (A549): 33.6 µM (inactive)
GI50 (OVCAR-4): 9.23 µM (inactive)
GI50 (SF-268): 33.2 µM (inactive)
GI50 (KM12): 18.3 µM (inactive)
GI50 (UO-31): 21.8 µM (inactive)
GI50 (PC-3): 32.3 µM (inactive)
GI50 (OVCAR-5): 61.2 µM (inactive)

C=C1CC(C)(c2ccc(Nc3nc4ccccc4c4occc34)cc2)OC1=O (stereo not given)
GI50 (HT-29): 3.61 µM (inactive)
GI50 (SN12C): 1.93 µM (inactive)
GI50 (OVCAR-3): 3.74 µM (inactive)
GI50 (MCF7): 3.32 µM (inactive)
GI50 (SK-MEL-28): 13.9 µM (inactive)
GI50 (HCC 2998): 2.32 µM (inactive)
GI50 (Malme-3M): 17.2 µM (inactive)
GI50 (HOP-62): 12.5 µM (inactive)
GI50 (OVCAR-8): 2.66 µM (inactive)
GI50 (HOP-92): 1.95 µM (inactive)
GI50 (SK-OV-3): 10.8 µM (inactive)
GI50 (HCT-15): 1.94 µM
GI50 (RXF 393): 2.08 µM (inactive)
GI50 (A549): 4.52 µM (inactive)
GI50 (OVCAR-4): 1.77 µM (inactive)
GI50 (SF-268): 2.93 µM (inactive)
GI50 (KM12): 5.97 µM (inactive)
GI50 (PC-3): 4.36 µM (inactive)
GI50 (OVCAR-5): 14.1 µM (inactive)

c1ccc(C2C3=C(c4ccccc4CC3)N3c4cc5c(cc4=NC34CCCCC24)Nc2ccccc2N=5)cc1 (stereo not given)
GI50 (HT-29): 7.87 µM (inactive)
GI50 (SN12C): > 10 µM (inactive)
GI50 (OVCAR-3): > 10 µM (inactive)
GI50 (MCF7): 7.69 µM (inactive)
GI50 (SK-MEL-28): > 10 µM (inactive)
GI50 (HCC 2998): > 10 µM (inactive)
GI50 (Malme-3M): > 10 µM (inactive)
GI50 (HOP-62): > 10 µM (inactive)
GI50 (OVCAR-8): > 10 µM (inactive)
GI50 (HOP-92): 7.64 µM (inactive)
GI50 (SK-OV-3): > 10 µM (inactive)
GI50 (HCT-15): 8.39 µM
GI50 (RXF 393): 6.59 µM (inactive)
GI50 (A549): > 10 µM (inactive)
GI50 (OVCAR-4): 5.79 µM (inactive)
GI50 (SF-268): > 10 µM (inactive)
GI50 (KM12): > 10 µM (inactive)
GI50 (UO-31): 6.55 µM (inactive)
GI50 (PC-3): 6.92 µM (inactive)
GI50 (OVCAR-5): > 10 µM (inactive)

Cc1ccc(Nc2nc(=S)[nH]c3[nH]ncc23)cc1
GI50 (HT-29): 42.5 µM (inactive)
GI50 (SN12C): 71.8 µM (inactive)
GI50 (OVCAR-3): 50.4 µM (inactive)
GI50 (MCF7): 37.3 µM (inactive)
GI50 (SK-MEL-28): 48.3 µM (inactive)
GI50 (HCC 2998): 77.3 µM (inactive)
GI50 (Malme-3M): > 100 µM (inactive)
GI50 (HOP-62): > 100 µM (inactive)
GI50 (OVCAR-8): > 100 µM (inactive)
GI50 (HOP-92): > 100 µM (inactive)
GI50 (SK-OV-3): > 100 µM (inactive)
GI50 (HCT-15): 47.6 µM
GI50 (RXF 393): > 100 µM (inactive)
GI50 (A549): 61.2 µM (inactive)
GI50 (OVCAR-4): 90.4 µM (inactive)
GI50 (SF-268): > 100 µM (inactive)
GI50 (KM12): 31 µM (inactive)
GI50 (UO-31): 78 µM (inactive)
GI50 (PC-3): 51.2 µM (inactive)
GI50 (OVCAR-5): > 100 µM (inactive)

CO/C(C)=N/CCC1=CCCCC1
GI50 (HT-29): > 100 µM (inactive)
GI50 (OVCAR-3): 89.1 µM (inactive)
GI50 (MCF7): > 100 µM (inactive)
GI50 (SK-MEL-28): > 100 µM (inactive)
GI50 (HCC 2998): 52.5 µM (inactive)
GI50 (Malme-3M): > 100 µM (inactive)
GI50 (HOP-62): > 100 µM (inactive)
GI50 (OVCAR-8): > 100 µM (inactive)
GI50 (HOP-92): > 100 µM (inactive)
GI50 (SK-OV-3): > 100 µM (inactive)
GI50 (HCT-15): > 100 µM
GI50 (RXF 393): > 100 µM (inactive)
GI50 (A549): > 100 µM (inactive)
GI50 (OVCAR-4): > 100 µM (inactive)
GI50 (SF-268): > 100 µM (inactive)
GI50 (KM12): > 100 µM (inactive)
GI50 (UO-31): > 100 µM (inactive)
GI50 (PC-3): > 100 µM (inactive)
GI50 (OVCAR-5): > 100 µM (inactive)

C=C(C)C(=O)OC1C(C(C)CCCO)=C(CO)CC2OC(=O)C(=C)C21 (stereo not given)
GI50 (HT-29): 18.3 µM (inactive)
GI50 (SN12C): 16.1 µM (inactive)
GI50 (OVCAR-3): 17.6 µM (inactive)
GI50 (MCF7): 11 µM (inactive)
GI50 (SK-MEL-28): 20 µM (inactive)
GI50 (HCC 2998): 17.7 µM (inactive)
GI50 (Malme-3M): 0.509 µM (active)
GI50 (HOP-62): 26.5 µM (inactive)
GI50 (OVCAR-8): 18.8 µM (inactive)
GI50 (HOP-92): 16.7 µM (inactive)
GI50 (SK-OV-3): 29 µM (inactive)
GI50 (HCT-15): 13.3 µM
GI50 (RXF 393): 13.8 µM (inactive)
GI50 (A549): 23.2 µM (inactive)
GI50 (OVCAR-4): 28.1 µM (inactive)
GI50 (SF-268): 17.1 µM (inactive)
GI50 (KM12): 12.6 µM (inactive)
GI50 (PC-3): 24.4 µM (inactive)
GI50 (OVCAR-5): 22.1 µM (inactive)

— ChEMBL document CHEMBL1201862, “PubChem BioAssay data set” (2004)
